The values that follow come from US9593136B2 (priority 2011, dated 2017).

One may read the IC50 as the midpoint of a concentration-inhibition curve. Higher therefore signals weaker potency.

Assay [1] concerns Mtb H37Rv (ATCC 27294). The assay can be described thus: microbe, parasite or virus in culture. It is filed as cell-based, Mycobacterium tuberculosis. The conditions noted are these: Mycobacterium tuberculosis.
For assay [2], the target named is M. tuberculosis Dxr (Mycobacterium tuberculosis, UniProt P9WNS1). Briefly: biochemical.
Setting [3] is: read-out: Mtb MIC (ug/mL) (7H9).
Setting [4] is: read-out: Mtb MIC (ug/mL) (GAST).

Each structure is given as a SMILES string. Values after ≈ are worked out from the molar mass of the structure shown. Like-named read-outs stand apart in the source and are kept apart here.

M. tuberculosis Dxr, sequence (P9WNS1 whole entry, looked up): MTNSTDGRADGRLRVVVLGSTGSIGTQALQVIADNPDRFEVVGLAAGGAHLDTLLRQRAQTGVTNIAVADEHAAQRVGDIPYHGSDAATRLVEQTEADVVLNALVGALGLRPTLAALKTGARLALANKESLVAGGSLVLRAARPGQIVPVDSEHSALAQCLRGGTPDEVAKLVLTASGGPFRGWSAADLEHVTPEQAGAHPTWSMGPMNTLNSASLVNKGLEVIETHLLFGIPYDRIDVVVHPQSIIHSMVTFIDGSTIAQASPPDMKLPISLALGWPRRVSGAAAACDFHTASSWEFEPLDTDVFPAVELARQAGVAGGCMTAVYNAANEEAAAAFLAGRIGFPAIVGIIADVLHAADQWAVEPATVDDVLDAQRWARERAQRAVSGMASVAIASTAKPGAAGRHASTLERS

Take `CC(=O)N(CCCP(=O)(O)O)OCC1CCCCC1` [GSJ75]: the MIC in assay [1] (read-out: Mtb MIC (ug/mL)) was > 200 µg/mL. The molecule also gave a half-inhibitory concentration (IC50) in assay [2] (Mtb Dxr IC50 (ug/mL)) of 212 µM.
As for `CC(=O)N(CCCP(=O)(O)O)OCc1ccc(C(C)C)cc1` [GSJ76], the values for the MIC in assay [1] (setting [3]) and in assay [1] (setting [4]) were 200 µg/mL (≈ 607 µM) and 25 µg/mL (≈ 75.9 µM), respectively. In addition, the IC50 in assay [2] (Mtb Dxr IC50 (ug/mL)) is 54 µM.
Consider `CC(=O)N(CCCP(=O)(O)O)OCc1ccc2ccccc2c1` [GSJ77], for which the MIC in assay [1] (read-out: Mtb MIC (ug/mL)) is ≥ 200 µg/mL. Besides, the IC50 in assay [2] (Mtb Dxr IC50 (ug/mL)) is 47.7 µM.
With `CC(=O)N(CCCP(=O)(O)O)OCCc1ccccc1` [GSJ78], the MIC in assay [1] (read-out: Mtb MIC (ug/mL)) was > 200 µg/mL. In assay [2] (Mtb Dxr IC50 (ug/mL)), this molecule showed an IC50 of 103 µM.
As to `CCOP(=O)(CCCN(OCCc1ccc(O)cc1)C(C)=O)OCC` [GSJ80], in assay [1] (read-out: Mtb MIC (ug/mL)), the MIC fell in the range of 200 to 400 µg/mL (≈ 536 to 1070 µM).
As for `CCOP(=O)(CCCN(OCCc1ccc(C)cc1)C(C)=O)OCC` [GSJ82], the MIC in assay [1] (setting [3]) was ≥ 400 µg/mL.
Take `CC(=O)N(CCCP(=O)(OCOC(=O)C(C)(C)C)OCOC(=O)C(C)(C)C)OCCCCc1ccccc1` [GSJ89]: the results for the MIC in assay [1] (setting [3]) and in assay [1] (setting [4]) were 12.5 µg/mL (≈ 22.4 µM) and 6.25 to 12.5 µg/mL (≈ 11.2 to 22.4 µM), respectively.
Consider `CC(=O)N(CCCP(=O)(OCOC(=O)c1ccccc1)OCOC(=O)c1ccccc1)OCCCCc1ccccc1` [GSJ92], for which the MIC in assay [1] (setting [3]) was 25 µg/mL (≈ 41.8 µM).
For the molecule `CC(=O)N(CCCP(=O)(OCOC(=O)C(C)(C)C)OCOC(=O)C(C)(C)C)OCc1ccc(C(C)C)cc1` [GSJ96], the MIC in assay [1] (read-out: Mtb MIC (ug/mL)) came to 12.5 µg/mL (≈ 22.4 µM).
Same read-out and setting: in the case of `CC(=O)N(CCCP(=O)(OCOC(=O)C(C)(C)C)OCOC(=O)C(C)(C)C)OCc1ccc(-c2ccccc2)cc1` [GSJ97] it was 12.5 µg/mL (≈ 21.1 µM).
As to `CCOP(=O)(CCCN(OCc1cccc(-c2ccccc2)c1)C(C)=O)OCC` [GSJ100], the MIC in assay [1] (read-out: Mtb MIC (ug/mL)) is 100 µg/mL (≈ 238 µM).
Take `CCOP(=O)(CCCN(OCc1ccccc1-c1ccccc1)C(C)=O)OCC` [GSJ101]: the MIC in assay [1] (read-out: Mtb MIC (ug/mL)) lay within 200 to 400 µg/mL (≈ 477 to 954 µM).
`CCOP(=O)(CCCN(OCc1ccc(Cl)c(Cl)c1)C(C)=O)OCC` [GSJ102]: in assay [1] (read-out: Mtb MIC (ug/mL)), the MIC turned out to be 200 µg/mL (≈ 485 µM).
Consider `CCOP(=O)(CCCN(OCc1cccc(OC(F)(F)F)c1)C(C)=O)OCC` [GSJ109], for which the MIC in assay [1] (read-out: Mtb MIC (ug/mL)) was 400 µg/mL (≈ 936 µM).
Still for that read-out and setting: in the case of `CCOP(=O)(CCCN(OCc1ccc(OC(F)(F)F)cc1)C(C)=O)OCC` [GSJ110] it was 400 µg/mL (≈ 936 µM); in that of `CCOP(=O)(CCCN(OCc1cc(OC)cc(OC)c1)C(C)=O)OCC` [GSJ111], > 400 µg/mL; in that of `CCOP(=O)(CCCN(OCc1ccc(-c2ccccc2C(=O)OC)cc1)C(C)=O)OCC` [GSJ112], 400 µg/mL (≈ 838 µM).
With `CCOP(=O)(CCCN(OCc1ccc(Br)cc1)C(C)=O)OCC` [GSJ113], the MIC in assay [1] (read-out: Mtb MIC (ug/mL)) stood at 400 µg/mL (≈ 947 µM).
Regarding `CCOP(=O)(CCCN(OCc1ccc(C)cc1)C(C)=O)OCC` [GSJ114], the MIC in assay [1] (read-out: Mtb MIC (ug/mL)) was > 400 µg/mL.
Regarding `CCOP(=O)(CCCN(OCc1cccc(Br)c1)C(C)=O)OCC` [GSJ115], the MIC in assay [1] (read-out: Mtb MIC (ug/mL)) amounted to 400 µg/mL (≈ 947 µM).
For `CCOP(=O)(CCCN(OCc1cccc2ccccc12)C(C)=O)OCC` [GSJ116], the MIC in assay [1] (read-out: Mtb MIC (ug/mL)) was determined as 400 µg/mL (≈ 1020 µM).
`O=C(CCc1ccccc1)N(O)CCCP(=O)(O)O` [GSJ 51]: the MIC in assay [1] (read-out: Mtb MIC (ug/mL)) was > 200 µg/mL. For the same molecule, the IC50 was 2.72 µM in assay [2] (IC50 (uM)), 2.92 µM in assay [2] (IC50 (ug/ml)) and 2.92 µM in assay [2] (Mtb Dxr IC50 (ug/mL)).
As for `O=C(CCCc1ccccc1)N(O)CCCP(=O)(O)O` [GSJ 52], in assay [1] (read-out: Mtb MIC (ug/mL)), the MIC was > 200 µg/mL. Also, the results for the IC50 in assay [2] (IC50 (uM)), in assay [2] (IC50 (ug/ml)) and in assay [2] (Mtb Dxr IC50 (ug/mL)) were 3.12 µM, 3.35 µM and 3.35 µM, respectively.
With `O=C(Cc1ccccc1)N(O)CCCP(=O)(O)O` [GSJ 55], the MIC in assay [1] (read-out: Mtb MIC (ug/mL)) is > 200 µg/mL. The concentration for half-maximal inhibition (IC50) in assay [2] (IC50 (uM)) was 7.49 µM; in assay [2] (IC50 (ug/ml)), 8.09 µM; in assay [2] (Mtb Dxr IC50 (ug/mL)) it was 8.09 µM.
Turning to `O=C(NCCCP(=O)(O)O)c1ccc2ccccc2c1` [GSJ 56], the MIC in assay [1] (read-out: Mtb MIC (ug/mL)) is > 200 µg/mL. Moreover, the remaining activity at 100 µg/mL in assay [2] (read-out: Mtb Dxr, value in parentheses (percent enzyme activity remaining)) came to 90%; in assay [2] (read-out: percent enzyme activity remaining at 100 ug/ml compound), 90%.
For `CC(=O)N(CCCP(=O)(O)O)OC(C)c1ccccc1` (stereo not drawn) [GSJ 63], the MIC in assay [1] (read-out: Mtb MIC (ug/mL)) is > 200 µg/mL. Besides, the IC50 in assay [2] (IC50 (uM)) is 161 µM; in assay [2] (IC50 (ug/ml)), 173 µM; in assay [2] (Mtb Dxr IC50 (ug/mL)) it was 173 µM.
Consider `NNC(=O)c1ccncc1` [Isoniazid, reference compound], for which the figures for the MIC in assay [1] (read-out: MIC 7H9 (μg/mL)) and in assay [1] (read-out: MIC GAST/Fe (μg/mL)) were 0.04 µg/mL (≈ 0.292 µM) and 0.02 µg/mL (≈ 0.146 µM), respectively.
